Assay [1] concerns Mycobacterium tuberculosis H37Rv (ATCC 27294). Description: BACTEC 460 radiometric system, primary screen and MIC against M. tuberculosis H37Rv. The class given is cell-based. To be noted: for MIC: Mycobacterium tuberculosis; for % Inhibition: primary screen at 12.5 or 6.25 ug/ml.
In the next assay the test system is M. tuberculosis Erdman. Description: MIC in the MABA against drug-sensitive strain Erdman. The assay is classed as cell-based. The following applies: Mycobacterium tuberculosis, read-out: MIC ERDMA (ug/ml).
For assay [2], the system named is Mycobacterium tuberculosis H37Rv (ATCC 27294). Description: Microplate Alamar Blue Assay (MABA), primary screen and MIC against M. tuberculosis H37Rv. Also noted: MIC H37Rv: unit not given beside the values. The following applies: for MIC: Mycobacterium tuberculosis, M. tuberculosis H37Rv; for MIC / % Inhibition: ASSAY ALAMAR; for % Inhibition: primary screen at 12.5 or 6.25 ug/ml. The class given is cell-based.

Assay [3] relates to M. tuberculosis Erdman (ATCC 35801) in mouse bone marrow macrophages. The assay is described as follows: Killing of M. tuberculosis Erdman in monolayers of mouse bone marrow macrophages (EC90, EC99). The assay is classed as cell-based, Mycobacterium tuberculosis.
The subject of a further assay is M.tuberculosis (H37Rv). To be noted: compared with 4-aminosalicylic acid; cited from earlier work.
[4] abbreviates: primary screen, BACTEC, M. tuberculosis H37Rv, read-out: MIC.

In brackets after ≈: the same amount, converted by molar mass.

As for `CO[C@H]1/C=C/O[C@@]2(C)Oc3c(C)c(O)c4c(O)c(c(/C=N/N5CCN(C)CC5)c(O)c4c3C2=O)NC(=O)/C(C)=C\C=C\[C@H](C)[C@H](O)[C@@H](C)[C@@H](O)[C@@H](C)[C@H](OC(C)=O)[C@@H]1C` [RMP, rifampin, reference compound], the MIC in assay [1] (reference drug in the COMMENT column of the primary screen, read-out: MIC of RMP vs. M. tuberculosis) was determined as 0.25 µg/mL.
Consider `O=Cc1ccc(/C=N/c2ccc(C(=O)Oc3ccccc3)c(O)c2)cc1` [SAMPLE ID 130069], for which the MIC in assay [1] (setting [4]) was below 12.5 µg/mL. In addition, the “% Inhibition” value in assay [1] (BACTEC, M. tuberculosis H37Rv) was 99%.
In the case of `O=C(Oc1ccccc1)c1ccc(NC(=S)Nc2ccccc2)cc1O` [SAMPLE ID 131326], the MIC in assay [1] (Table 4, assay not given, read-out: MIC) was 0.2 µg/mL (≈ 0.549 µM); in assay [1] (actual MIC, ASSAY BACTEC, M. tuberculosis H37Rv, read-out: MIC), 0.2 µg/mL (≈ 0.549 µM); in assay [1] (setting [4]), below 12.5 µg/mL; with M. tuberculosis Erdman it was 0.2 µg/mL (≈ 0.549 µM). The “% Inhibition” value in assay [1] (BACTEC, M. tuberculosis H37Rv) is listed as 100%. Moreover, in assay [2] (Table 9 strain panel, drug-sensitive strain H37Rv), the “MIC H37Rv” value is given as 1.56. This compound also came in with a 99% effect concentration (EC99) in assay [3] (99% reduction in colony forming units at 7 days, bactericidal activity) of 0.92 µg/mL. In assay [3] (Mycobacterium tuberculosis, Bone marrow macrophage, 168 h, 90% reduction in colony forming units at 7 days, bacteriostatic activity), the EC90 came out at 0.203 µg/mL (≈ 0.557 µM).
As for `O=C(Oc1ccccc1)c1ccc(/N=C/c2ccc([N+](=O)[O-])cc2)cc1O` [SAMPLE ID 133652], the MIC was 0.1 µg/mL (≈ 0.276 µM) in assay [1] (actual MIC, ASSAY BACTEC, M. tuberculosis H37Rv) and below 12.5 µg/mL in assay [1] (primary screen, BACTEC, M. tuberculosis H37Rv). In addition, in assay [1] (BACTEC, M. tuberculosis H37Rv), the “% Inhibition” value is given as 97%.
As for `CCC(=O)Nc1ccc(C(=O)Oc2ccccc2)c(OC(=O)CC)c1` [SAMPLE ID 138392], in assay [2], the MIC was determined as 0.39 µg/mL (≈ 1.14 µM) and the “% Inhibition” value came to 94%.
For the compound `O=C(Oc1ccccc1)c1ccc(/C=N/c2ccccc2[N+](=O)[O-])cc1O` [SAMPLE ID 139235], in assay [2], the MIC is 0.025 µg/mL (≈ 0.069 µM) and the “% Inhibition” value is 97%.
As for `Nc1ccc(C(=O)Oc2ccccc2)c(O)c1` [phenyl 4-aminosalicylate], the “destruction of the virulent strain of M.tuberculosis (H37Rv)” value in the assay on M.tuberculosis (H37Rv) is recorded as “even better than 4-aminosalicylic acid”.
